The results in this text go back to paper PMC11189555, “Aryl amino acetamides prevent Plasmodium falciparum ring development via targeting the lipid-transfer protein PfSTART1” (Nature Communications, 2024).

The test system of test [1] is CR-WT parasites. The test can be described thus: Growth inhibition assay (72 h, LDH activity). In kind it is cell-based, Plasmodium falciparum. The note with it: CR-WT; for inhibition at 0.1 µM / inhibition at up to 0.1 µM / EC50: Plasmodium falciparum; for inhibition at 0.1 µM / inhibition at up to 0.1 µM: read-out: NORMALISED (growth inhibition, LDH absorbance); for EC50: read-out: EC50 W-991 (95% confidence interval), Fig 4C, n = 3. How it is done: Parasite growth assays with inhibitory compounds were performed as per[11] and are fully described in the Supplementary Information.
Molecular biology and transfection of P. falciparum: CRISPR method.
The full 5’ homology region of pfstart1 (either WT, N309K or N330K) was amplified from pPfSTART1-HA-2A-Neo-glmS with the same 5’ BglII primer and a new 3’ primer that replaced with PstI with SpeI and introduced a stop codon. The PCR product was then digested with BglII and SpeI and inserted into similarly digested p1.2 parasite vector2. The p1.2 vector had previously been inserted with a homology region amplified from the 3’ end of the pfstart1 gene (3’HB) to form a second homology block for double recombination. The primers used to amplify 3’HB are listed primers listed in […]
60 μg of p1.2-PfSTART1(WT/N309K/N330K) plasmid was linearised with KasI, precipitated in 3 M sodium acetate and ethanol (70% final concentration) overnight at -20°C. The DNA pellet was washed in cold 70% ethanol and resuspended in cytomix 3.
50 μ M of crRNA ( Table S 2) and 50 μM of tracRNA (Integrated DNA Technologies) were allowed to form a duplex (5 min at 95°C), and Cas9 enzyme (Integrated DNA Technologies) was added, and incubated for 20 min at room temperature 4. This crRNA -tracRNA -Cas9 mix was added to each DNA preparation and transfected to 3D7 ring parasites using the Bio -Rad Gene Pulser at 310 V and 950 μF.
Parasites containing the transfected DNA were selected using 2.5 nM WR99210 (Jacobus). Parasites lines were cloned using limiting dilution. Correct integration was tested by PCR (using primer START_5’UTR.F and START_Int.R1 , Table S 2), and sequencing was done using the primers START_3F and START_Int.R2 (Table S 2).
Growth inhibition assays. Synchronised ring-stage parasites (0.3-0.6% parasitemia, 2% haematocrit) were grown for 72 h in a serial-dilution of the compound under […]
(§1) and compound 4. Note that M-833 was first purchased from MolPort (MolPort -002-267-916) then made in-house at WEHI: the differences observed in EC50s across experiments are attributed to the different batches of M -833. For some experiments, 0, 0.25 or 2.5 mM of glucosamine (GlcN) was also added. Experiments were set up in technical duplicates or triplicates. Following a freeze -thaw cycle, lactate dehydrogenase (LDH) activity was assessed as an indicator of parasite growt h 5. 30 μL of parasite culture was incubated for 30 min in the dark with 75 μL Malstat mixture (0.1 M Tris pH 9.0, 20 g/L lactic acid, pH 7.5, 0.2% Triton-X100, 0.5 g/L acetylpyridine adenine dinucleotide (APAD, Sigma), 200 μg/mL nitroblue tetrazolium (NBT; Sigma), 1 μg/mL phenozine ethosulfate (PES; Sigma)). Absorbance was then measured at 650 nm, transformed using the formula below, plotted against the logarithm of the concentrations, and a non-linear regression (log(inhibitor) vs. response, variable slope) was calculated using GraphPad Prism to assess the half-inhibitory […]
(§2) Growth inhibition % = (1 − average(sample)− average(uRBC)) ∗ 100 […]
(§3) The DMSO samples were also used to assess growth of parasite in the presence of 0.25 and 2.5 mM GlcN (normalised by DMSO in 0 mM GlcN). […]

The subject of test [2] is M-833 resistant parasite populations (PopC, PopD, PopE). The test can be described thus: Growth inhibition of M-833 resistant populations (LDH). In kind it is cell-based, Plasmodium falciparum. The note with it: Fig 4B. How it is done: After three cycles of drug treatment, three parasite populations were identified as less susceptible to the compound and their growth in serially diluted M-833 after 72 h was measured by lactate dehydrogenase (LDH) activity assays. […] The two most resistant populations (PopD and PopE) were further cloned out by limiting dilution. […] To identify the target of M-833, genomic DNA was extracted from the clonal lines of PopD and PopE and subjected to whole genome sequencing using MinION technology and compared to clonal 3D7 parental parasites. This identified 14 non-synonymous single nucleotide polymorphisms (SNP) across nine different genes when compared to the 3D7 parental strain (Supplementary Data 1). The two genes that had SNPs present across all resistant clones were the P. falciparum liver stage antigen 1 gene (PF3D7_1036400) and P. falciparum stAR-related lipid transfer protein (PF3D7_0104200, PFA0210c; pfstart1). The former is not expressed in the blood stage[19]–[21] and comprises a large central repeat region which is problematic for variant calling. […] Collectively, all the identified mutations (N309K, I224F, N330K) were found within the central conserved START domain and predicted to face the lipid-binding pocket (Fig. 1C).
The drug was then removed, and parasites were allowed to recover. Another cycle of drug treatment (3 μM M-833) was then resumed. The resistant lines were cloned out by limiting dilution (diluting the culture into a 96-well plate to achieve an average of ~0.3 parasites per well), prior to growth inhibition assays and genomic DNA (gDNA) extraction (DNeasy Blood and Tissue kit (Qiagen)[18].
Parasite growth assays with inhibitory compounds were performed as per[11] and are fully described in the Supplementary Information. […]
as §1, §2, §3

The mark [3] stands for this setting: 0.25 mM GlcN, dilution point 1 of 10, starting concentration 100 nM.
Setting [4] is: 2.5 mM GlcN, dilution point 1 of 10, starting concentration 100 nM.
Setting [5] is: 2.5 mM GlcN, dilution point 2 of 10 from starting concentration 100 nM.
Setting [6] is: 2.5 mM GlcN, dilution point 3 of 10 from starting concentration 100 nM.
Where [7] appears, read: 2.5 mM GlcN, dilution point 4 of 10 from starting concentration 100 nM.
Where [8] appears, read: 2.5 mM GlcN, dilution point 6 of 10 from starting concentration 100 nM.

“And” between values parts separate entries of the source, which are not always exact repeats. Equal entries are not always repeated. Where two headings read alike, the source gives them in different places.

Take `CC(C)(Nc1ccc(Cl)c(S(=O)(=O)N2CCOCC2)c1)C(=O)Nc1ccc(F)c(Cl)c1` [W-991]: the “NORMALISED (growth inhibition, LDH absorbance vs DMSO and uRBC)” value in test [1] (0 mM GlcN, W991 at 1.23457 nM) is 49.5102 and 70.9626; in test [1] (0 mM GlcN, W991 at 3.7037 nM) it was 86.3119 and 94.5107; in test [1] (0 mM GlcN, W991 at 11.1111 nM) it was 91.2364 and 97.6134; in test [1] (0 mM GlcN, W991 at 33.3333 nM), 92.4279 and 96.4200; in test [1] (0 mM GlcN, W991 at 100 nM) it was 91.9778 and 98.0111. Moreover, the “NORMALISED (growth inhibition, LDH absorbance)” value was 97.4106 in test [1] (setting [3]); 93.8101 in test [1] (0.25 mM GlcN, dilution point 2 of 10 from starting concentration 100 nM); 94.0567 in test [1] (0.25 mM GlcN, dilution point 3 of 10 from starting concentration 100 nM); 92.7990 in test [1] (0.25 mM GlcN, dilution point 4 of 10 from starting concentration 100 nM); 69.6729 and 71.5413 in test [1] (0.25 mM GlcN, dilution point 5 of 10 from starting concentration 100 nM); 30.2387 and 29.5808 in test [1] (0.25 mM GlcN, dilution point 6 of 10 from starting concentration 100 nM). Besides, the “NORMALISED (growth inhibition, LDH absorbance)” value in test [1] (setting [4]) was 92.5403; in test [1] (setting [5]), 92.2581; in test [1] (setting [6]), 92.0699; in test [1] (setting [7]), 91.3306; in test [1] (2.5 mM GlcN, dilution point 5 of 10 from starting concentration 100 nM), 90.4301; in test [1] (setting [8]) it was 75.1747. Moreover, the “NORMALISED (growth inhibition, LDH absorbance)” value in test [1] (2.5 mM GlcN, dilution point 7 of 10 from starting concentration 100 nM) was 66.8125 and 50.5511; in test [1] (2.5 mM GlcN, dilution point 8 of 10 from starting concentration 100 nM) it was 47.5123 and 39.2070; in test [1] (2.5 mM GlcN, dilution point 9 of 10 from starting concentration 100 nM) it was 32.6882 and 33.0782; in test [1] (2.5 mM GlcN, dilution point 10 of 10 from starting concentration 100 nM) it was 35.7796 and 19.6829. For the same compound, in test [1] (Fig 4C), the “fold sensitised on PfSTART1 knock-down with GlcN” value came to 7 fold. In addition, the figures for the inhibition at 0.1 µM in test [1] (setting [3]) and in test [1] (setting [4]) were 93.4% and 94.2%, respectively. Further, the inhibition (in general, how much of the control response was suppressed) at up to 0.1 µM in test [1] (setting [5]) is 91.4%; in test [1] (setting [6]), 93%; in test [1] (setting [7]) it was 91.6%; in test [1] (setting [8]) it was 80.3%. Also, the concentration for a half-maximal effect (EC50) – broadly, the concentration giving half of the maximal effect – in test [1] (0 mM GlcN) stood at 1080 pM; in test [1] (0.25 mM GlcN), 727 pM; in test [1] (2.5 mM GlcN), 154 pM.

On to `O=C(CNc1ccc(Cl)c(S(=O)(=O)N2CCOCC2)c1)Nc1ccc(F)c(Cl)c1` [compound 2, reference compound], for which the “activity against M-833-resistant populations” value in test [2] is “cross-resistant”.
